The results in this text go back to patent US9980973B2, “Bicyclic heterocycle compounds and their uses in therapy” (ASTEX THERAPEUTICS LIMITED, priority 2012, dated 2018).

Counter-ions that a name gives are not always drawn. Like-named read-outs stand apart in the source and are kept apart here.

This assay deals with EVSA-T (human breast carcinoma). The experiment in a line: Anti-proliferative activity, Alamar Blue assay, EVSA-T. It is filed as cell-based. For orientation: Alamar Blue is a resazurin reagent that responds to reducing activity.
Setting [1] is: Homo sapiens, EVSA-T, 72 h, EVSA-T cells, 72 hours, Alamar Blue, read-out: EVSA-T prolif.
Where [2] appears, read: Homo sapiens, EVSA-T, read-out: EC50 in EVSA-T cell line assays.
Where [3] appears, read: EVSA-T cells, 72 hours, Alamar Blue, dihydrochloride, read-out: EVSA-T prolif.

On to `C[C@@H]1CN(CC(=O)N2CC(C)(C)c3ncc(Cc4ccc(F)cc4)cc32)[C@@H](CN2CCC[C@@H](F)C2)CN1` [Example 14, 1-{6-[(4-Fluorophenyl)methyl]-3,3-dimethyl-1H,2H,3H-pyrrolo[3,2-b]pyridin-1-yl}-2-[(2R,5R)-2-{[(3R)-3-fluoropiperidin-1-yl]methyl}-5-methylpiperazin-1-yl]ethan-1-one dihydrochloride], for which the EC50 under setting [1] was found to be 4.6 nM and the EC50 under setting [2] was less than 1000 nM.
Take `C[C@@H]1CN(CC(=O)N2CC(C)(C)c3ncc(Cc4ccc(F)cc4)cc32)[C@@H](CN2CCC(O)CC2)CN1` [Example 23, 1-{6-[(4-Fluorophenyl)methyl]-3,3-dimethyl-1H,2H,3H-pyrrolo[3,2-b]pyridin-1-yl}-2-[(2R,5R)-2-[(4-hydroxypiperidin-1-yl)methyl]-5-methylpiperazin-1-yl]ethan-1-one dihydrochloride]: the EC50 by setting is: under setting [1], 3.8 nM; under setting [2], less than 1000 nM.
Turning to `C[C@@H]1CN(CC(=O)N2CC(C)(C)c3ncc(Cc4ccc(F)cc4)cc32)[C@@H](CN2CCOC(C#N)C2)CN1` (stereo partly drawn) [Example 31, 4-{[(2R,5R)-1-(2-{6-[(4-Fluorophenyl)methyl]-3,3-dimethyl-1H,2H,3H-pyrrolo[3,2-b]pyridin-1-yl}-2-oxoethyl)-5-methylpiperazin-2-yl]methyl}morpholine-2-carbonitrile], the EC50 reads like this: under setting [1], 1.1 nM; under setting [2], less than 1000 nM.
Turning to `CC1CC(=O)CCN1C[C@H]1CN[C@H](C)CN1CC(=O)N1CC(C)(C)c2ncc(Cc3ccc(F)cc3)cc21` (stereo partly drawn) [Example 8, 1-{[(2R,5R)-1-(2-{6-[(4-Fluorophenyl)methyl]-3,3-dimethyl-1H,2H,3H-pyrrolo[3,2-b]pyridin-1-yl}-2-oxoethyl)-5-methylpiperazin-2-yl]methyl}-2-methylpiperidin-4-one dihydrochloride], the EC50 was 3 nM under setting [1] and less than 1000 nM under setting [2].
Consider `C[C@@H]1CN(CC(=O)N2CC(C)(C)c3ncc(Cc4ccc(F)cc4)cc32)[C@@H](CN2CCC(F)(F)C2)CN1` [Example 6, 2-[(2R,5R)-2-[(3,3-Difluoropyrrolidin-1-yl)methyl]-5-methylpiperazin-1-yl]-1-{6-[(4-fluorophenyl)methyl]-3,3-dimethyl-1H,2H,3H-pyrrolo[3,2-b]pyridin-1-yl}ethan-1-one dihydrochloride], for which the EC50 under setting [1] turned out to be 4.6 nM and the EC50 under setting [2] is less than 1000 nM.
In the case of `C[C@@H]1CN(CC(=O)N2CC(C)(C)c3ncc(Cc4ccc(F)cc4)cc32)[C@@H](CN2[C@H](CO)COC[C@H]2C)CN1` [Example 37, 1-{6-[(4-Fluorophenyl)methyl]-3,3-dimethyl-1H,2H,3H-pyrrolo[3,2-b]pyridin-1-yl}-2-[(2R,5R)-2-{[(3R,5R)-3-(hydroxymethyl)-5-methylmorpholin-4-yl]methyl}-5-methylpiperazin-1-yl]ethan-1-one, dihydrochloride], the EC50 was 2.8 nM under setting [1] and less than 1000 nM under setting [2].
For `CO[C@@H]1CN(C[C@H]2CN[C@H](C)CN2CC(=O)N2CC(C)(C)c3ncc(Cc4ccc(F)cc4)cc32)C[C@@H]1F` (mixture of isomers) [Example 41], the EC50 under setting [1] is 6 nM and the EC50 under setting [2] is less than 1000 nM.
In the case of `C[C@@H]1CN(CC(=O)N2CC(C)(C)c3ncc(Cc4ccc(F)cc4)cc32)[C@@H](CN2C3CCC2COC3)CN1` [Example 17, 1-{6-[(4-Fluorophenyl)methyl]-3,3-dimethyl-1H,2H,3H-pyrrolo[3,2-b]pyridin-1-yl}-2-[(2R,5R)-5-methyl-2-{3-oxa-8-azabicyclo[3.2.1]octan-8-ylmethyl}piperazin-1-yl]ethan-1-one dihydrochloride], the EC50 was 3.8 nM under setting [1] and less than 1000 nM under setting [2].
As to `CC(=O)N1CCN(C[C@H]2CN[C@H](C)CN2CC(=O)N2CC(C)(C)c3ncc(Cc4ccc(F)cc4)cc32)C(C)C1` (mixture of isomers) [Example 33, 2-[(2R,5R)-2-[(4-Acetyl-2-methylpiperazin-1-yl)methyl]-5-methylpiperazin-1-yl]-1-{6-[(4-fluorophenyl)methyl]-3,3-dimethyl-1H,2H,3H-pyrrolo[3,2-b]pyridin-1-yl}ethan-1-one dihydrochloride], the EC50 reads like this: under setting [1], 0.46 nM; under setting [2], less than 1000 nM.
Consider `C[C@@H]1CN(CC(=O)N2CC(C)(C)c3c2cc(Cc2ccc(F)cc2)c[n+]3[O-])[C@@H](CN2[C@H](C)COC[C@H]2C)CN1` [Example 121, 1-{2-[(2R,5R)-2-{[(3R,5R)-3,5-Dimethylmorpholin-4-yl]methyl}-5-methylpiperazin-1-yl]acetyl}-6-[(4-fluorophenyl)methyl]-3,3-dimethyl-1H,2H,3H-pyrrolo[3,2-b]-pyridin-4-oxide dihydrochloride], for which the EC50 is, setting by setting: under setting [1], 0.37 nM; under setting [2], less than 1000 nM.
As for `C[C@@H]1CN(CC(=O)N2CC(C)(C)c3ncc(Cc4ccc(F)cc4)cc32)[C@@H](CN2CCn3cnnc3C2)CN1` [Example 71, 1-{6-[(4-Fluorophenyl)methyl]-3,3-dimethyl-1H,2H,3H-pyrrolo[3,2-b]pyridin-1-yl}-2-[(2R,5R)-5-methyl-2-{5H, 6H, 7H, 8H-[1,2,4]triazolo[4,3-a]pyrazin-7-ylmethyl}piperazin-1-yl]ethan-1-one dihydrochloride], the EC50 reads like this: under setting [1], 98 nM; under setting [2], less than 1000 nM.
Regarding `C[C@@H]1CN(CC(=O)N2CC(C)(C)c3ncc(C(O)c4cc(F)ccc4F)cc32)[C@@H](CN2[C@H](C)COC[C@H]2C)CN1` (single isomer, unassigned) [Example 115, 1-{(R or S)-6-[(2,5-Difluorophenyl)(hydroxy)meth-yl]-3,3-dimethyl-1H,2H,3H-pyrrolo[3,2-b]pyridin-1-yl}-2-[(2R,5R)-2-{[(3R,5R)-3,5-dimethylmorpholin-4-yl]methyl}-5-methylpiperazin-1-yl]ethan-1-one dihydrochloride], the EC50 by setting is: under setting [3], 9.5 nM; under setting [2], less than 1000 nM.
With `C[C@@H]1CN(CC(=O)N2CC(C)(C)c3ncc(Cc4ccc(F)cc4)cc32)[C@@H](CN2Cc3cccnc3C2)CN1` [Example 21, 1-{6-[(4-Fluorophenyl)methyl]-3,3-dimethyl-1H,2H,3H-pyrrolo[3,2-b]pyridin-1-yl}-2-[(2R,5R)-5-methyl-2-{5H,6H,7H-pyrrolo[3,4-b]pyridin-6-ylmethyl}piperazin-1-yl]ethan-1-one dihydrochloride], the EC50 under setting [1] is 3.7 nM and the EC50 under setting [2] is less than 1000 nM.
In the case of `C[C@@H]1CN(CC(=O)N2CC(C)(C)c3cnc(Cc4ccc(F)cc4F)cc32)[C@@H](CN2[C@H](C)COC[C@H]2C)CN1` [Example 63, 1-{6-[(2,4-Difluorophenyl)methyl]-3,3-dimethyl-1H,2H,3H-pyrrolo[3,2-c]pyridin-1-yl}-2-[(2R,5R)-2-{[(3R,5R)-3,5-dimethylmorpholin-4-yl]methyl}-5-methylpiperazin-1-yl]ethan-1-one, dihydrochloride], the EC50 reads like this: under setting [1], 0.48 nM; under setting [2], less than 1000 nM.
For `C[C@@H]1CN(CC(=O)N2CC(C)(C)c3ncc(C(O)c4ccc(F)c(F)c4)cc32)[C@@H](CN2[C@H](C)COC[C@H]2C)CN1` (single isomer, unassigned) [Example 110, (R or S)-1-{6-[(3,4-Difluorophenyl)(hydroxy)meth-yl]-3,3-dimethyl-1H,2H,3H-pyrrolo[3,2-b]pyridin-1-yl}-2-[(2R,5R)-2-{[(3R,5R)-3,5-dimethylmorpholin-4-yl]methyl}-5-methylpiperazin-1-yl]ethan-1-one dihydrochloride], under setting [3], the EC50 came to 2.8 nM.
In the case of `COCC1(C)COCCN1C[C@H]1CN[C@H](C)CN1CC(=O)N1CC(C)(C)c2ncc(Cc3ccc(F)cc3)cc21` (single isomer, unassigned) [Example 99, dihydrochloride], under setting [1], the EC50 came to 1.5 nM.
Take `C[C@@H]1CN(CC(=O)N2CC(C)(C)c3ncc(Cc4ccc(F)cc4)cc32)[C@@H](CN2CCOCC2(C)CO)CN1` (stereo partly drawn) [Example 47, 1-{6-[(4-Fluorophenyl)methyl]-3,3-dimethyl-1H,2H,3H-pyrrolo[3,2-b]pyridin-1-yl}-2-[(2R,5R)-2-{[3-(hydroxymethyl)-3-methylmorpholin-4-yl]methyl}-5-methylpiperazin-1-yl]ethan-1-one, dihydrochloride]: the EC50 is, setting by setting: under setting [1], 0.9 nM; under setting [2], less than 1000 nM.
For `CCCC(F)(F)c1cc2c(cn1)C(C)(C)CN2C(=O)CN1C[C@@H](C)NC[C@@H]1CN1[C@H](C)CN(C(C)=O)C[C@@H]1C` [Example 93, 2-[(2R,5R)-2-{[(2R,6S)-4-Acetyl-2,6-dimethylpiperazin-1-yl]methyl}-5-methylpiperazin-1-yl]-1-[6-(1,1-difluorobutyl)-3,3-dimethyl-1H,2H,3H-pyrrolo[3,2-c]pyridin-1-yl]ethan-1-one dihydrochloride], in that order: 7.1 nM and less than 1000 nM.
For the compound `C[C@@H]1CN(CC(=O)N2CC(C)(C)c3ncc(Cc4ccc(F)cc4)cc32)[C@@H](CN2CCOCC2(C)C)CN1` [Example 5, 2-[(2R,5R)-2-[(3,3-Dimethylmorpholin-4-yl)methyl]-5-methylpiperazin-1-yl]-1-{6-[(4-fluorophenyl)methyl]-3,3-dimethyl-1H,2H,3H-pyrrolo[3,2-b]pyridin-1-yl}ethan-1-one dihydrochloride], the EC50 runs as follows: under setting [1], 0.3 nM; under setting [2], less than 1000 nM.
As for `CC1CS(=O)(=O)CCN1C[C@H]1CN[C@H](C)CN1CC(=O)N1CC(C)(C)c2ncc(Cc3ccc(F)cc3)cc21` (stereo partly drawn) [Example 9, 4-{[(2R,5R)-1-(2-{6-[(4-Fluorophenyl)methyl]-3,3-dimethyl-1H,2H,3H-pyrrolo[3,2-b]pyridin-1-yl}-2-oxoethyl)-5-methylpiperazin-2-yl]methyl}-3-methyl-1λ^6,4-thiomorpholine-1,1-dione dihydrochloride], the EC50 was 2.1 nM under setting [1] and less than 1000 nM under setting [2].
